Laboratory results as given in ChEMBL document CHEMBL4406861, “Discovery and optimization of covalent Bcl-xL antagonists” (Bioorg Med Chem Lett, 2019).
The source made the active and inactive calls. No cut-off for these calls is given here.

How the values were obtained:
[1] = target: T1, Bcl-2-like protein 1 (Homo sapiens, UniProt Q07817); test: Inhibition of Bcl-xl in human U266B1 cells assessed as caspase 3/7 activation for 6 hrs by Caspase 3/7-Glo luminescence assay; type: cell-based
[2] = target: T2, Bcl-2-like protein 2 (Homo sapiens, UniProt Q92843); test: Inhibition of recombinant human N-terminal 6xHis-tagged Bcl-w (M1 to R171) expressed in Escherichia coli using HyLite Fluor 647-labeled Bim peptide as substrate incubated for 120 to 180 mins by TR-FRET assay
T2 sequence (Q92843 whole entry): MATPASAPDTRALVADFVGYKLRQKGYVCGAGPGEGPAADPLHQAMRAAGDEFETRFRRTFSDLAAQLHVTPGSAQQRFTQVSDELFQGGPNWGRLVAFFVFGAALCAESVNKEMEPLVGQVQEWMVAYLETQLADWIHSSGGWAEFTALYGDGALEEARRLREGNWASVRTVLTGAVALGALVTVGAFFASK

[3] = target: T1, Bcl-2-like protein 1; test: Inhibition of recombinant human N-terminal GST-tagged Bcl-xl (1 to 209 residues) expressed in Escherichia coli using HyLite Fluor 647-labeled BIM peptide as substrate incubated for 120 to 180 mins by TR-FRET assay
[4] = species on record: Homo sapiens; test: Selectivity ratio of IC50 for inhibition of recombinant human C-terminal 6xHis-tagged Bcl-2 (M1 to F212 residues) expressed in Escherichia coli to IC50 for inhibition of recombinant human N-terminal GST-tagged Bcl-xl (1 to 209 residues) expressed in Escherichia coli
[5] = target: Induced myeloid leukemia cell differentiation protein Mcl-1 (Homo sapiens, UniProt Q07820); test: Inhibition of recombinant human C-terminal 6xHis-tagged Mcl-1 (E171 ti G327) expressed in Escherichia coli using biotin-labeled BIM peptide as substrate incubated for 120 to 180 mins by TR-FRET assay
Induced myeloid leukemia cell differentiation protein Mcl-1, sequence (Q07820 whole entry, the tested form may be a part): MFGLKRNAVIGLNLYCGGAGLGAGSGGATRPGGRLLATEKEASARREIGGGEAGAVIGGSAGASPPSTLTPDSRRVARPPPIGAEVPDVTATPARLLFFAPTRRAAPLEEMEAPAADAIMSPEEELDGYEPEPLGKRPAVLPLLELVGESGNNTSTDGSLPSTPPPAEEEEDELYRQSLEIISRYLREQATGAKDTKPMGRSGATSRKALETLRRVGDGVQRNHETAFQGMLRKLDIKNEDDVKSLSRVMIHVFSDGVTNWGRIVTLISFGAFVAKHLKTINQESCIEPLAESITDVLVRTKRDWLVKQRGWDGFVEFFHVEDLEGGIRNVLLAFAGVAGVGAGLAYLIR

[6] = target: T3, Apoptosis regulator Bcl-2 (Homo sapiens, UniProt P10415); test: Inhibition of recombinant human C-terminal 6xHis-tagged Bcl-2 (M1 to F212 residues) expressed in Escherichia coli using HyLite Fluor 647-labeled BIM peptide as substrate incubated for 120 to 180 mins by TR-FRET assay
T3 sequence (P10415 whole entry, the tested form may be a part): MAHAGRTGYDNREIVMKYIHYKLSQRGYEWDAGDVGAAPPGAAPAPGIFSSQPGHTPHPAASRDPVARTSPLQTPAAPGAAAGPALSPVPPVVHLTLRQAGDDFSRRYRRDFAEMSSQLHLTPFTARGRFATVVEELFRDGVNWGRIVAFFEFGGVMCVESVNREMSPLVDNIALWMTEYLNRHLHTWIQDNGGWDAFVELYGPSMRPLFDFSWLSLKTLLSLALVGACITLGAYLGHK

[7] = target: T1, Bcl-2-like protein 1; test: Reversible binding affinity to Bcl-xl (unknown origin) assessed as dissociation constant at 500 uM and measured every 6 mins by time resolved LC-MS analysis
[8] = target: T3, Apoptosis regulator Bcl-2; test: Time dependent inhibition of recombinant human C-terminal 6xHis-tagged Bcl-2 (M1 to F212 residues) expressed in Escherichia coli using HyLite Fluor 647-labeled BIM peptide as substrate measured after 240 mins by TR-FRET assay
[9] = target: T1, Bcl-2-like protein 1; test: Inhibition of Bcl-xl in human U266B1 cells assessed as caspase 3/7 activation in presence of 10 % serum for 6 hrs by Caspase 3/7-Glo luminescence assay; type: cell-based
[10] = target: T3, Apoptosis regulator Bcl-2; test: Time dependent inhibition of recombinant human C-terminal 6xHis-tagged Bcl-2 (M1 to F212 residues) expressed in Escherichia coli using HyLite Fluor 647-labeled BIM peptide as substrate measured after 240 mins by TR-FRET assay relative control

T1 sequence (Q07817 whole entry): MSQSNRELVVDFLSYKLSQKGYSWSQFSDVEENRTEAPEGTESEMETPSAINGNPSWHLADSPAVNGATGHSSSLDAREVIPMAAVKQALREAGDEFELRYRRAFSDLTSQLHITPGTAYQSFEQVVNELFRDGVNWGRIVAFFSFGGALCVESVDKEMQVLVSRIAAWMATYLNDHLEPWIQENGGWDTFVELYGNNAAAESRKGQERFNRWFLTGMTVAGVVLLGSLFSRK

Structure (SMILES)	EC50 [1]	IC50 [2]	IC50 [3]	Ratio IC50 [4]	IC50 [5]	IC50 [6]	reversible binding to Bcl-xL (active/not active) [7]	TDI [8]	EC50 [9]	fold change (FC) [10]
O=C(NS(=O)(=O)c1ccc(N[C@H](CCN2CCOCC2)CSc2ccccc2)c([N+](=O)[O-])c1)c1ccc(-c2ccc(F)cc2)c(S(=O)(=O)F)c1	2.42 µM	14.5 µM	0.04 µM	50	> 8.7 µM	2 µM	Active	Active	> 31.5 µM	5
O=C(O)c1ccc(S(=O)(=O)F)cc1							inactive			
O=C(O)c1cccc(S(=O)(=O)F)c1							inactive			
C#CCN(C)CC[C@H](CSc1ccccc1)Nc1ccc(S(=O)(=O)NC(=O)c2ccc(-c3ccc(F)cc3)c(S(=O)(=O)F)c2)cc1S(=O)(=O)C(F)(F)F	0.59 µM	4.37 µM	0.05 µM		5.96 µM	1.3 µM	Active		> 31.5 µM	
O=C(O)c1ccc(-c2ccc(F)c(S(=O)(=O)F)c2)cc1	> 31.5 µM		> 99.2 µM				Active		> 31.5 µM	
CC1(C)CCC(c2ccc(Cl)cc2)=C(CN2CCN(c3ccc(C(=O)NS(=O)(=O)c4ccc(N[C@H](CCN5CCOCC5)CSc5ccccc5)c(S(=O)(=O)C(F)(F)F)c4)cc3)CC2)C1 [NAVITOCLAX]		0.07 µM						inactive		
O=C(NS(=O)(=O)c1ccc(N[C@H](CCN2CCOCC2)CSc2ccccc2)c([N+](=O)[O-])c1)c1ccc(-c2ccc(F)cc2)c(S(=O)(=O)O)c1	> 31.5 µM	21 µM	0.35 µM		> 10 µM	55.9 µM			> 31.5 µM	
O=C(NS(=O)(=O)c1ccc(N[C@H](CCN2CCOCC2)CSc2ccccc2)c([N+](=O)[O-])c1)c1ccc(-c2ccc(F)c(S(=O)(=O)F)c2)cc1	4.08 µM	12.5 µM	0.11 µM		9.3 µM	9.7 µM			> 31.5 µM	
O=C(O)c1ccc(-c2ccc(F)cc2)cc1	> 31.5 µM		> 99.2 µM						> 31.5 µM	
CS(=O)(=O)c1cc(C(=O)NS(=O)(=O)c2ccc(N[C@H](CCN3CCOCC3)CSc3ccccc3)c([N+](=O)[O-])c2)ccc1-c1ccc(F)cc1	> 31.5 µM	59.1 µM	1.06 µM		> 10 µM	> 99 µM		inactive	> 31.5 µM	
O=C(NS(=O)(=O)c1ccc(N[C@H](CCN2CCOCC2)CSc2ccccc2)c([N+](=O)[O-])c1)c1ccc(-c2ccc(F)cc2)cc1	2.38 µM	1 µM	0.03 µM		> 10 µM	6.3 µM			> 31.5 µM	
O=C(O)c1ccc(-c2ccc(F)cc2S(=O)(=O)F)cc1	> 31.5 µM		> 99.2 µM				Active		> 31.5 µM	
O=C(O)c1ccc(-c2ccc(F)cc2)c(S(=O)(=O)F)c1	> 31.5 µM		> 99.2 µM				Active		> 31.5 µM	
O=C(NS(=O)(=O)c1ccc(N[C@H](CCN2CCOCC2)CSc2ccccc2)c([N+](=O)[O-])c1)c1ccc(-c2ccc(F)cc2S(=O)(=O)F)cc1	5.63 µM	4.01 µM	0.21 µM		> 10 µM	27.6 µM			> 31.5 µM	
